Measurements reported in the supplement of paper PMC11061612.

Experiments:
Assay in all cases: Bliss excess, mean over the matrix (fraction); higher = more synergy
[1] = test system: 639-V (Bladder Carcinoma)
How it was run: (§1)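 After 24 hours at 37°C and 5% CO2 in 1536-well plates, cells in DMEM/F12 or RPMI plus 10% FBS received two-drug dose matrices for 72 hours. Viability came from CellTiter-Glo 2.0 luminescence and was scaled as inhibition, anchored at 0 by vehicle wells and at 1 by blank wells. Combination Emax is taken as the second-highest inhibition in the matrix, and Bliss excess as the observed combination effect less EA + EB − EA·EB, with EA and EB the single-agent effects.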

[2] = test system: CAPAN-1 (Pancreatic Carcinoma)
How it was run: as §1

[3] = test system: EN (Endometrial Carcinoma)
How it was run: as §1

[4] = test system: HARA (Squamous Cell Lung Carcinoma)
How it was run: as §1

[5] = test system: HMV-II (Melanoma)
How it was run: as §1

[6] = test system: HO-1-u-1 (Oral Cavity Carcinoma)
How it was run: as §1

[7] = test system: Hs-633T (Other Solid Carcinomas)
How it was run: as §1

[8] = test system: KARPAS-231 (B-Cell Non-Hodgkin's Lymphoma)
How it was run: as §1

[9] = test system: LB771-HNC (Head and Neck Carcinoma)
How it was run: as §1

[10] = test system: LoVo (Colorectal Carcinoma)
How it was run: as §1

[11] = test system: MDA-MB-468 (Breast Carcinoma)
How it was run: as §1

[12] = test system: NB14 (Neuroblastoma)
How it was run: as §1

[13] = test system: NCI-H69 (Small Cell Lung Carcinoma)
How it was run: as §1

[14] = test system: NCI-H747 (Colorectal Carcinoma)
How it was run: as §1

[15] = test system: OVCAR-8 (Ovarian Carcinoma)
How it was run: as §1

[16] = test system: PCI-30 (Head and Neck Carcinoma)
How it was run: as §1

[17] = test system: RT-112 (Bladder Carcinoma)
How it was run: as §1

[18] = test system: SUP-T1 (T-Lymphoblastic Leukemia)
How it was run: as §1

[19] = test system: TE-4 (Esophageal Squamous Cell Carcinoma)
How it was run: as §1

[20] = test system: UMC-11 (Other Solid Carcinomas)
How it was run: as §1

| SMILES | Bliss excess [1] | Bliss excess [2] | Bliss excess [3] | Bliss excess [4] | Bliss excess [5] | Bliss excess [6] | Bliss excess [7] | Bliss excess [8] | Bliss excess [9] | Bliss excess [10] | Bliss excess [11] | Bliss excess [12] | Bliss excess [13] | Bliss excess [14] | Bliss excess [15] | Bliss excess [16] | Bliss excess [17] | Bliss excess [18] | Bliss excess [19] | Bliss excess [20] |
| --- | --- | --- | --- | --- | --- | --- | --- | --- | --- | --- | --- | --- | --- | --- | --- | --- | --- | --- | --- | --- |
| CC1(C)CCC(CN2CCN(c3ccc(C(=O)NS(=O)(=O)c4ccc(NCC5CCOCC5)c([N+](=O)[O-])c4)c(Oc4cnc5[nH]ccc5c4)c3)CC2)=C(c2ccc(Cl)cc2)C1 [Venetoclax] + C=CCn1c(=O)c2cnc(Nc3ccc(N4CCN(C)CC4)cc3)nc2n1-c1cccc(C(C)(C)O)n1 [AZD1775] (first compound max 1 µM, partner max 1 µM) | -0.0322 | -0.0443 | 0.0619 | 0.0494 | -0.0542 | -0.0256 | 0.017 | -0.047 | 0.0127 | -0.0625 | -0.0308 | 0.0967 | -0.0251 | -0.0656 | -0.0326 | 0.0974 | 0.0891 | 0.0425 | -0.0529 | -0.0679 |
| CN(CCO)CC[C@H](CSc1ccccc1)Nc1ccc(S(=O)(=O)NC(=O)c2ccc(N3CCC([C@@H](O)c4ccccc4-c4ccc(Cl)cc4)CC3)cc2)cc1S(=O)(=O)C(F)(F)F [AZD4320] + C=CCn1c(=O)c2cnc(Nc3ccc(N4CCN(C)CC4)cc3)nc2n1-c1cccc(C(C)(C)O)n1 [AZD1775] (first compound max 1 µM, partner max 1 µM) | -0.0437 | 0.0172 | -0.0337 | -0.0129 | 0.0496 | 0.0066 | 0.0672 | 0.117 | -0.0049 | 0.0093 | 0.032 | 0.0415 | -0.0213 | -0.0238 | -0.012 | 0.0013 | -0.0285 | 0.0212 | -0.0044 | -0.0122 |
| CC1(C)CCC(CN2CCN(c3ccc(C(=O)NS(=O)(=O)c4ccc(NCC5CCOCC5)c([N+](=O)[O-])c4)c(Oc4cnc5[nH]ccc5c4)c3)CC2)=C(c2ccc(Cl)cc2)C1 [Venetoclax] + COc1cc(Nc2ncc3c(n2)-c2ccc(Cl)cc2C(c2c(F)cccc2OC)=NC3)ccc1C(=O)O [Alisertib] (first compound max 1 µM, 7x7, partner max 10 µM) | 0.0173 | -0.0425 | -0.0554 | 0.018 | -0.0414 | 0.0246 | -0.0237 | 0.0566 | -0.0185 | -0.0799 | 0.0409 | 0.0448 | 0.146 | 0.0071 | 0.0079 | -0.0352 | -0.0323 | 0.0423 | -0.034 | 0.192 |
| COc1cc2c(cc1OCCCCCOc1cc3c(cc1OC)C(=O)N1C=C(C)C[C@H]1C=N3)N=C[C@@H]1CC(C)=CN1C2=O [SG3199] + O=C(c1cc(Cc2n[nH]c(=O)c3ccccc23)ccc1F)N1CCN(C(=O)C2CC2)CC1 [Olaparib] (first compound max 0.001 µM, 7x7, partner max 10 µM) | -0.0289 | -0.0802 | -0.0456 | -0.0066 | -0.0524 | -0.0205 | -0.0312 | 0.0289 | 0.0002 | -0.0455 | -0.0971 | -0.0283 | -0.0136 | -0.0269 | -0.0295 | -0.0328 | -0.0227 | -0.0478 | -0.0319 | 0.0084 |
| Cc1c2c(nn1C)CSCc1cc(n(C)n1)CSc1cc(c3ccccc3c1)OCCCc1c(C(=O)O)n(C)c3c-2c(Cl)ccc13 [AZD5991] + Cn1cnc2c(F)c(Nc3ccc(Br)cc3Cl)c(C(=O)NOCCO)cc21 [Selumetinib] (first compound max 1 µM, 7x7, partner max 3 µM) | 0.0247 | -0.0269 | -0.0494 | -0.0263 | 0.0066 | 0.0168 | 0.0542 | -0.0645 | -0.0118 | 0.0074 | -0.0389 | 0.0392 | -0.065 | 0.0032 | 0.0416 | -0.0352 | 0.102 | -0.0246 | 0.0329 | 0.0198 |
| Cc1cc2ncnn2cc1Nc1ncc2c(n1)n(C1CCOCC1)c(=O)n2C [AZD7648] + O=C(c1cc(Cc2n[nH]c(=O)c3ccccc23)ccc1F)N1CCN(C(=O)C2CC2)CC1 [Olaparib] (first compound max 10 µM, 7x7, partner max 10 µM) | -0.0184 | -0.1 | -0.0423 | -0.0114 | -0.0181 | -0.0481 | -0.0191 | 0.0132 | -0.0542 | -0.0382 | -0.0504 | -0.0534 | -0.0151 | -0.0465 | -0.0103 | -0.0695 | -0.0152 | -0.0488 | 0.0061 | 0.0471 |
| CN(CCO)CC[C@H](CSc1ccccc1)Nc1ccc(S(=O)(=O)NC(=O)c2ccc(N3CCC([C@@H](O)c4ccccc4-c4ccc(Cl)cc4)CC3)cc2)cc1S(=O)(=O)C(F)(F)F [AZD4320] + CN(C)CCCOc1ccc(-c2ccc3ncc4c(c3c2)n(C2CCOCC2)c(=O)n4C)cn1 [AZD0156] (first compound max 1 µM, 7x7, partner max 1 µM) | -0.0209 | -0.0654 | -0.0085 | 0.0007 | -0.0267 | 0.0032 | -0.014 | 0.0325 | -0.0454 | -0.0622 | -0.127 | 0.061 | -0.0465 | -0.0546 | -0.0434 | -0.0931 | -0.0274 | -0.0333 | -0.0285 | -0.0015 |
